The nature of data set [1]: activity coefficient (dimensionless); of the first substance listed, at infinite dilution; xn = mol fraction of the nth substance listed. The following applies: 101 kPa, Liquid, Chromatography, x1 = 0.
The conditions of data set [2]: 293.15 K; 101.33 kPa; Liquid; Vibrating tube method.

± gives the expanded uncertainty stated by the source.

Take `C=CCCCC` [hex-1-ene] + CCCCCCCCCCCCCC[P+](CCCCCC)(CCCCCC)CCCCCC.O=S(=O)([N-]S(=O)(=O)C(F)(F)F)C(F)(F)F: the activity coefficient in data set [1] (313.15 K) came out at 0.907 ± 0.066; in data set [1] (333.15 K), 0.921 ± 0.067; in data set [1] (353.15 K) it was 0.93 ± 0.068; in data set [1] (373.15 K) it was 0.942 ± 0.068.
Take `C1CCCCC1` [cyclohexane] + CCCCCCCCCCCCCC[P+](CCCCCC)(CCCCCC)CCCCCC.O=S(=O)([N-]S(=O)(=O)C(F)(F)F)C(F)(F)F: the activity coefficient in data set [1] (313.15 K) is 0.795 ± 0.059; in data set [1] (333.15 K), 0.797 ± 0.059; in data set [1] (353.15 K) it was 0.798 ± 0.059; in data set [1] (373.15 K), 0.8 ± 0.059.
As for `CCCCCCCC` [octane] + CCCCCCCCCCCCCC[P+](CCCCCC)(CCCCCC)CCCCCC.O=S(=O)([N-]S(=O)(=O)C(F)(F)F)C(F)(F)F, the activity coefficient in data set [1] (313.15 K) was 1.4 ± 0.1; in data set [1] (333.15 K), 1.44 ± 0.11; in data set [1] (353.15 K), 1.46 ± 0.11; in data set [1] (373.15 K), 1.49 ± 0.11.
Consider `C1CCCCCCC1` [cyclooctane] + CCCCCCCCCCCCCC[P+](CCCCCC)(CCCCCC)CCCCCC.O=S(=O)([N-]S(=O)(=O)C(F)(F)F)C(F)(F)F, for which the activity coefficient in data set [1] (313.15 K) was 0.963 ± 0.07; in data set [1] (333.15 K), 0.998 ± 0.072; in data set [1] (353.15 K) it was 1.07 ± 0.078; in data set [1] (373.15 K), 1.12 ± 0.082.
On to `C=CCCC` [1-pentene] + CCCCCCCCCCCCCC[P+](CCCCCC)(CCCCCC)CCCCCC.O=S(=O)([N-]S(=O)(=O)C(F)(F)F)C(F)(F)F, for which the activity coefficient worked out at 0.806 ± 0.06 in data set [1] (313.15 K), 0.824 ± 0.061 in data set [1] (333.15 K), 0.842 ± 0.062 in data set [1] (353.15 K) and 0.85 ± 0.063 in data set [1] (373.15 K).
Turning to `C1CCCCCC1` [cycloheptane] + CCCCCCCCCCCCCC[P+](CCCCCC)(CCCCCC)CCCCCC.O=S(=O)([N-]S(=O)(=O)C(F)(F)F)C(F)(F)F, the activity coefficient in data set [1] (313.15 K) turned out to be 0.87 ± 0.064; in data set [1] (333.15 K) it was 0.881 ± 0.065; in data set [1] (353.15 K) it was 0.891 ± 0.065; in data set [1] (373.15 K), 0.905 ± 0.066.
For `CCC(C)=O` [butanone] + CCCCCCCCCCCCCC[P+](CCCCCC)(CCCCCC)CCCCCC.O=S(=O)([N-]S(=O)(=O)C(F)(F)F)C(F)(F)F the same measures were 0.321 ± 0.034, 0.309 ± 0.033, 0.324 ± 0.034 and 0.331 ± 0.034.
Regarding `C#CCCCCCCC` [1-nonyne] + CCCCCCCCCCCCCC[P+](CCCCCC)(CCCCCC)CCCCCC.O=S(=O)([N-]S(=O)(=O)C(F)(F)F)C(F)(F)F, the activity coefficient is 0.853 ± 0.063 in data set [1] (313.15 K), 0.915 ± 0.067 in data set [1] (333.15 K), 0.956 ± 0.069 in data set [1] (353.15 K) and 0.979 ± 0.071 in data set [1] (373.15 K).
For `Cc1ccccc1` [toluene] + CCCCCCCCCCCCCC[P+](CCCCCC)(CCCCCC)CCCCCC.O=S(=O)([N-]S(=O)(=O)C(F)(F)F)C(F)(F)F, the activity coefficient in data set [1] (313.15 K) worked out at 0.452 ± 0.039; in data set [1] (333.15 K), 0.472 ± 0.04; in data set [1] (353.15 K), 0.486 ± 0.041; in data set [1] (373.15 K), 0.51 ± 0.042.
`CCCCCC` [hexane] + CCCCCCCCCCCCCC[P+](CCCCCC)(CCCCCC)CCCCCC.O=S(=O)([N-]S(=O)(=O)C(F)(F)F)C(F)(F)F: the activity coefficient came out at 1.1 ± 0.08 in data set [1] (313.15 K), 1.11 ± 0.081 in data set [1] (333.15 K), 1.12 ± 0.082 in data set [1] (353.15 K) and 1.13 ± 0.083 in data set [1] (373.15 K).
For `C#CCCC` [1-pentyne] + CCCCCCCCCCCCCC[P+](CCCCCC)(CCCCCC)CCCCCC.O=S(=O)([N-]S(=O)(=O)C(F)(F)F)C(F)(F)F, the activity coefficient amounted to 0.613 ± 0.048 in data set [1] (313.15 K), 0.636 ± 0.049 in data set [1] (333.15 K), 0.663 ± 0.051 in data set [1] (353.15 K) and 0.699 ± 0.053 in data set [1] (373.15 K).
Take `CCCO` [propan-1-ol] + CCCCCCCCCCCCCC[P+](CCCCCC)(CCCCCC)CCCCCC.O=S(=O)([N-]S(=O)(=O)C(F)(F)F)C(F)(F)F: the activity coefficient worked out at 1.28 ± 0.095 in data set [1] (313.15 K), 1.15 ± 0.084 in data set [1] (333.15 K), 1.07 ± 0.078 in data set [1] (353.15 K) and 0.953 ± 0.069 in data set [1] (373.15 K).
Consider `C1CCCC1` [cyclopentane] + CCCCCCCCCCCCCC[P+](CCCCCC)(CCCCCC)CCCCCC.O=S(=O)([N-]S(=O)(=O)C(F)(F)F)C(F)(F)F, for which the activity coefficient was 0.687 ± 0.052 in data set [1] (313.15 K), 0.698 ± 0.053 in data set [1] (333.15 K), 0.713 ± 0.054 in data set [1] (353.15 K) and 0.721 ± 0.055 in data set [1] (373.15 K).
`CCCCC` [pentane] + CCCCCCCCCCCCCC[P+](CCCCCC)(CCCCCC)CCCCCC.O=S(=O)([N-]S(=O)(=O)C(F)(F)F)C(F)(F)F: the activity coefficient was determined as 0.96 ± 0.07 in data set [1] (313.15 K), 0.978 ± 0.071 in data set [1] (333.15 K), 0.99 ± 0.072 in data set [1] (353.15 K) and 1 ± 0.072 in data set [1] (373.15 K).
Regarding `C=CCCCCC` [1-heptene] + CCCCCCCCCCCCCC[P+](CCCCCC)(CCCCCC)CCCCCC.O=S(=O)([N-]S(=O)(=O)C(F)(F)F)C(F)(F)F, the activity coefficient stood at 1.03 ± 0.075 in data set [1] (313.15 K), 1.06 ± 0.077 in data set [1] (333.15 K), 1.1 ± 0.08 in data set [1] (353.15 K) and 1.12 ± 0.082 in data set [1] (373.15 K).
As for `CCCCCCCCCCCCCC[P+](CCCCCC)(CCCCCC)CCCCCC.O=S(=O)([N-]S(=O)(=O)C(F)(F)F)C(F)(F)F`, the mass density (usually mass per unit of volume) in data set [2] is on record as 1068.87 ± 8.6 kg/m3.
In the case of `C#CCCCC` [1-hexyne] + CCCCCCCCCCCCCC[P+](CCCCCC)(CCCCCC)CCCCCC.O=S(=O)([N-]S(=O)(=O)C(F)(F)F)C(F)(F)F, the activity coefficient in data set [1] (313.15 K) was determined as 0.693 ± 0.053; in data set [1] (333.15 K) it was 0.709 ± 0.054; in data set [1] (353.15 K), 0.72 ± 0.054; in data set [1] (373.15 K), 0.732 ± 0.055.
The corresponding values for `CCCCCCCCC` [nonane] + CCCCCCCCCCCCCC[P+](CCCCCC)(CCCCCC)CCCCCC.O=S(=O)([N-]S(=O)(=O)C(F)(F)F)C(F)(F)F are 1.6 ± 0.12, 1.67 ± 0.13, 1.77 ± 0.14 and 1.87 ± 0.14.
On to `c1ccccc1` [benzene] + CCCCCCCCCCCCCC[P+](CCCCCC)(CCCCCC)CCCCCC.O=S(=O)([N-]S(=O)(=O)C(F)(F)F)C(F)(F)F, for which the activity coefficient was 0.391 ± 0.036 in data set [1] (313.15 K), 0.405 ± 0.037 in data set [1] (333.15 K), 0.417 ± 0.038 in data set [1] (353.15 K) and 0.437 ± 0.039 in data set [1] (373.15 K).
For `CC(C)=O` [acetone] + CCCCCCCCCCCCCC[P+](CCCCCC)(CCCCCC)CCCCCC.O=S(=O)([N-]S(=O)(=O)C(F)(F)F)C(F)(F)F, the activity coefficient in data set [1] (313.15 K) stood at 0.297 ± 0.033; in data set [1] (333.15 K), 0.327 ± 0.034; in data set [1] (353.15 K) it was 0.332 ± 0.034; in data set [1] (373.15 K), 0.334 ± 0.034.
For `C#CCCCCCC` [1-octyne] + CCCCCCCCCCCCCC[P+](CCCCCC)(CCCCCC)CCCCCC.O=S(=O)([N-]S(=O)(=O)C(F)(F)F)C(F)(F)F the same measures were 0.836 ± 0.062, 0.865 ± 0.063, 0.886 ± 0.065 and 0.899 ± 0.066.
In the case of `CO` [methanol] + CCCCCCCCCCCCCC[P+](CCCCCC)(CCCCCC)CCCCCC.O=S(=O)([N-]S(=O)(=O)C(F)(F)F)C(F)(F)F, the activity coefficient in data set [1] (313.15 K) worked out at 1.08 ± 0.079; in data set [1] (333.15 K), 1.03 ± 0.074; in data set [1] (353.15 K), 0.922 ± 0.067; in data set [1] (373.15 K), 0.863 ± 0.063.
Take `C#CCCCCC` [1-heptyne] + CCCCCCCCCCCCCC[P+](CCCCCC)(CCCCCC)CCCCCC.O=S(=O)([N-]S(=O)(=O)C(F)(F)F)C(F)(F)F: the activity coefficient in data set [1] (313.15 K) stood at 0.726 ± 0.055; in data set [1] (333.15 K) it was 0.749 ± 0.056; in data set [1] (353.15 K), 0.762 ± 0.057; in data set [1] (373.15 K) it was 0.782 ± 0.058.

These data come from the NIST ThermoML archive (doi:10.1016/j.jct.2013.05.030).
